Holding throughout (format): cell-based
The target of experiment [1] is T1, TRPC5 (Homo sapiens, UniProt Q9UL62).
T1 construct: expressed in transfected cells; host or cells: HEK 293
T1 sequence (Q9UL62 1-973): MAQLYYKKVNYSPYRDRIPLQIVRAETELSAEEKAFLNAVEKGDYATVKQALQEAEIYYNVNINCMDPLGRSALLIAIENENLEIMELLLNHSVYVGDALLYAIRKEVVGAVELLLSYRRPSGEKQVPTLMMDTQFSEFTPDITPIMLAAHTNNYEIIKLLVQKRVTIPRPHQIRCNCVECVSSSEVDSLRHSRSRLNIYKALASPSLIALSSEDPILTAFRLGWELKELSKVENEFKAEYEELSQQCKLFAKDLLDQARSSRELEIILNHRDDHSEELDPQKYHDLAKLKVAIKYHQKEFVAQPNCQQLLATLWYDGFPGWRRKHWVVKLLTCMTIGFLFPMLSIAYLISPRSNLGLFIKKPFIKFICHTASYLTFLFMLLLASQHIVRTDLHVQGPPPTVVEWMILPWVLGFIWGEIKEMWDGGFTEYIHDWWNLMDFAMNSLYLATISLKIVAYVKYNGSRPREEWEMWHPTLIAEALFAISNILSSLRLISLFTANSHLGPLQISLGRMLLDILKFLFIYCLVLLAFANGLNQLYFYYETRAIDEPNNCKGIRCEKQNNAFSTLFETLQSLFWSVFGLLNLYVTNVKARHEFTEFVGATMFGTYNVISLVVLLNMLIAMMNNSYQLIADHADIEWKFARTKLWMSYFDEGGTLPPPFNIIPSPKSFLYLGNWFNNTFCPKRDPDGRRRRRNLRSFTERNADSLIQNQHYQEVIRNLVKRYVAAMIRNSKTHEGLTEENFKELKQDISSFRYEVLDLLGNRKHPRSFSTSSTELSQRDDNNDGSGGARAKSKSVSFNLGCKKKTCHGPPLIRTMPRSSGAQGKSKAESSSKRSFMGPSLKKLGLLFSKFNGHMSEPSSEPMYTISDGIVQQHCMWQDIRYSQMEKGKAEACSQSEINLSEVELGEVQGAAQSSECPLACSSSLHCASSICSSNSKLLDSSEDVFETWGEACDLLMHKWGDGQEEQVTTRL
Description: TRPC5 automated electrophysiology (Syncropatch - Spatch format). Particulars: Table 6; HEK293 cells overexpressing TRPC5. On the procedure:
The automated electrophysiological assay was carried out at room temperature. HEK-TRPC5 cells were cultured according to our standard operating procedures. Internal and external physiological solutions were freshly prepared prior to the assay. The free internal Ca2+ concentration was buffered to 1 μM according to the WCabuf software using 10 mMHEDTA. To monitor the ion currents, a voltage ramp from −100 mV to +80 mV, over 250 ms, was applied every 15 seconds, from a holding potential of −60 mV. To stabilize the inward and outward currents the voltage was kept steady at −100 mV and +80 mV for 20 ms. After recording for a minimum of 60 seconds control period, the activator (at 10, 15, 20 or 30 μM) was applied twice, before increasing concentrations of test compound (or vehicle) were applied to the cell. This was followed by a saturating concentration of the specific blocker ML 204 (100 μM). Graphs were plotted using the maximum outward current values obtained at +80 mV during the patch-clamp recordings. Data were normalized using the SyncroPatch384 equation Inorm=1−((Iconc−IFB)/(IRef−IFB)), where Iconc is the current amplitude at each concentration of agonist, IRef is the control current amplitude and IFB is the current in the presence of the saturating blocker ML204. Graphs were constrained between the maximum and minimum values. The series resistance (<15 MΩ) and quality of seals (>100 MΩ) were continuously monitored during the experiments. Data was analyzed using the Nanion Data Control384 software. EC/IC50 values were calculated using a least squares regression algorithm (Hill equation).
For orientation: In patch-clamp work, channel activity is measured electrically.

The target in experiment [2] is T1, TRPC5. In words: TRPC5 fluorescence assay, membrane potential dye, flexstation (FLEX). The settings on record: Table 6; HEK293 cells overexpressing TRPC5. The procedure:
HEK 293 cells expressing human TRPC5 cells were trypsinised, counted and seeded in black, clear-bottomed 96-well plates at a density of 50,000 cells per well and incubated overnight. Next day, the cells were loaded with membrane potential dye. Dye solution was made up according to the manufacturer's instructions in HEPES buffered Hank's balanced salt solution (HBSS). Dye solution (10 μL) was added to the wells and incubated at 37° C. for 1 hour. The test compounds and standard inhibitors were added to the wells and incubated at room temperature for 10 minutes. The plates were then placed in the flexstation and fluorescence monitored every 1.52 seconds. After 20 seconds, 10 μL of the appropriate standard agonist was added and the fluorescence monitored for 2 minutes at ex/emm: 530 nm/565 nm.

Experiment [3] concerns the target T1, TRPC5. Description: TRPC5 automated patch clamp assay (Qpatch), current block after rosiglitazone stimulation. The settings on record: Table 6; HEK293 cells overexpressing TRPC5; read-out: TRPC5-QPatch IC50. Summed up:
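Currents were elicited by 300 ms voltage ramps (−100 to +100 mV, every 10 s, holding −60 mV) in human TRPC5-expressing HEK 293 cells on automated patch clamp, with Rosiglitazone (30 uM) activating the channel. Internal Ca2+ buffered to 1 μM; Hill-equation fitting gave IC50.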

Regarding `N#Cc1cc(F)ccc1Cn1nnc2c1CCN(c1cn[nH]c(=O)c1Cl)C2`, the IC50 in experiment [1] lay within 5000 to 10000 nM.

Consider `CCc1ncccc1Cn1nnc2c1CCN(c1cn[nH]c(=O)c1C#N)C2` [drawing 918], for which, in experiment [1], the IC50 fell in the range of 1000 to 5000 nM.

In experiment [1], `CC[C@H](c1cncc(F)c1)n1cnc2c1CCN(c1cn[nH]c(=O)c1Cl)C2` showed an IC50 of 1000 to 5000 nM.

`O=c1[nH]ncc(N2CCc3c(nnn3Cc3cccnc3C(F)F)C2)c1Cl` registered an IC50 in experiment [1] of 5000 to 10000 nM.

Take `C[C@H]1Cc2c(nnn2Cc2ccccc2C(F)F)CN1c1cn[nH]c(=O)c1Cl`: in experiment [1], the IC50 lay within 10000 to 500000 nM.

`CC1Cc2c(nnn2Cc2ccccc2C(F)F)CN1c1cn[nH]c(=O)c1Cl` (stereo not drawn): the half-maximal inhibitory concentration (IC50) in experiment [1] fell in the range of 0.01 to 1000 nM.

In experiment [1], `O=c1[nH]ncc(Cl)c1N1CCc2c(nc(C3CC3)n2Cc2ccccc2C(F)(F)F)C1` gave an IC50 of 10000 to 500000 nM.

Regarding `COc1cccc(Cn2nnc3c2CCN(c2cn[nH]c(=O)c2Cl)C3)c1C`, the IC50 in experiment [1] fell in the range of 1000 to 5000 nM.

In the case of `O=c1[nH]ncc(N2CCc3c(ncn3Cc3ccc(C(F)(F)F)cc3)C2)c1C1CC1`, the IC50 in experiment [2] and in experiment [3] was 10000 to 500000 nM in each case.

Turning to `O=c1[nH]ncc(N2CCc3c(ncn3-c3ccccc3C(F)(F)F)C2)c1Cl` [drawing 871], the IC50 in experiment [2] and in experiment [3] was 0.01 to 1000 nM in each case.

Regarding `Cc1nc2c(n1Cc1ccccc1C(F)(F)F)CCN(c1cn[nH]c(=O)c1Cl)C2`, the IC50 in experiment [2] and in experiment [3] was 0.01 to 1000 nM each time.

With `O=c1[nH]ncc(N2CCc3c(nnn3Cc3ccccc3C(F)(F)F)C2)c1Br`, the IC50 fell in the range of 0.01 to 1000 nM in experiment [2] and 1000 to 5000 nM in experiment [3].

Consider `O=c1[nH]ncc(N2CCc3c(ncn3Cc3ccc(F)cc3C(F)(F)F)C2)c1Cl` [drawing 844], for which the 50% inhibitory concentration (IC50) in experiment [2] and in experiment [3] was 0.01 to 1000 nM in each case.

For `O=c1[nH]ncc(N2CCc3c(ncn3Cc3ccncc3C(F)(F)F)C2)c1Cl`, the IC50 in experiment [2] is 0.01 to 1000 nM; in experiment [3], 1000 to 5000 nM.

For the molecule `N#Cc1c(N2CCc3c(ncn3Cc3ccccc3C(F)F)C2)cn[nH]c1=O`, the figures for the 50% inhibitory concentration (IC50) in experiment [2] and in experiment [3] were 0.01 to 1000 nM and 1000 to 5000 nM, respectively.

For `CC1c2nnn(Cc3ccccc3C(F)F)c2CCN1c1cn[nH]c(=O)c1Cl` (stereo not drawn) [drawing 924], the IC50 in experiment [1] was 0.01 to 1000 nM.

Take `O=c1[nH]ncc(N2CCc3c(nnn3Cc3ccc(F)cc3C(F)(F)F)C2)c1Cl`: the IC50 in experiment [2] and in experiment [3] was 0.01 to 1000 nM throughout.

With `O=c1[nH]ncc(N2CCc3c(ncn3Cc3cccnc3OC(F)(F)F)C2)c1Cl`, the IC50 in experiment [2] and in experiment [3] was 0.01 to 1000 nM each time.

As for `O=c1[nH]ncc(N2CCc3nn(-c4ccccc4C(F)(F)F)cc3C2)c1Cl`, the figures for the IC50 in experiment [2] and in experiment [3] were 0.01 to 1000 nM and 10000 to 500000 nM, respectively.

With `CC1c2nnn(Cc3ccccc3C(F)F)c2CCN1c1cn[nH]c(=O)c1Cl` (stereo not drawn) [drawing 923], the IC50 in experiment [1] lay in the range of 10000 to 500000 nM.

As to `C[C@H](c1ccccc1)n1cnc2c1CCN(c1cn[nH]c(=O)c1Cl)C2` [drawing 842], the IC50 in experiment [2] is 0.01 to 1000 nM; in experiment [3], 1000 to 5000 nM.

For `Cc1ccccc1-n1ncc2c1CCN(c1cn[nH]c(=O)c1Cl)C2`, the IC50 in experiment [2] and in experiment [3] was 0.01 to 1000 nM throughout.

`N#Cc1c(N2CCc3c(nnn3Cc3ccccc3C(F)F)C2)cn[nH]c1=O`: the figures for the IC50 in experiment [2] and in experiment [3] were 10000 to 500000 nM and 1000 to 5000 nM, respectively.

For orientation: IC50 means the concentration that inhibits the measured activity by half.

For the origin of these results see patent US20260184708A1, “PYRIDAZINONES AND METHODS OF USE THEREOF” (GFB (ABC), LLC, priority 2017, published 2026).
